Test results reported in patent publication US20100249419A1, “UTILIZATION OF NOVEL COMPOUNDS WITH AMYLOID AFFINITY AND METHOD OF PRODUCING THE SAME” (NIHON MEDI-PHYSICS CO., LTD., priority 2007, published 2010).

Experiments:
[1] = target: T1, aggregated Aβ (Aβ1-42) injected into amygdaloid nucleus (Homo sapiens, UniProt P05067); assay: Confirmation of imaging of amyloid in brain (ex vivo autoradiogram, Aβ1-42); design: species or system male Wistar rat; conditions: brain slice 60 minutes after tail vein injection
T1 construct: Aβ1-42 (manufactured by Wako) was dissolved in phosphate buffer (pH 7.4); purchased Wako
T1 sequence (P05067 672-713): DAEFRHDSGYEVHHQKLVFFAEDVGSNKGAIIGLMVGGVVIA
Method: The following experiment was carried out in order to examine whether amyloid in brain can be imaged by the compound of the present invention.
(1) Aβ1-42 (manufactured by Wako) was dissolved in phosphate buffer (pH 7.4) and shaken at 37° C. for 72 hours, to obtain a 1 mg/mL suspension of aggregated Aβ (hereinafter referred to as amyloid suspension in the Examples).
(2) 2.5 μL (corresponding to […]) of the amyloid suspension was injected into an amygdaloid nucleus on one side of a male Wistar rat (7-week old). As a control, 2.5 μL of a phosphate buffered physiological saline solution (pH 7.4) was injected into an amygdaloid nucleus on the other side of the rat. The rats were examined 1 day after the injection of the amyloid suspension and the phosphate buffered physiological saline solution (pH 7.4).
(3) Compound 1 was dissolved in a 10 mg/mL ascorbic acid-containing physiological saline solution to obtain a sample solution (22 MBq/mL in radioactivity concentration in the sample solution). This solution was injected under thiopental anesthesia into the rat through the tail vein (dosage: 0.5 mL, dosed radioactivity: 11-13 MBq equivalent).
(4) Brain was removed 60 minutes after the injection to prepare a brain slice of 10 μm in thickness with a microtome (type: CM3050S, manufactured by LEICA). The brain slice was exposed to an imaging plate for 20 hours, and then image analysis was carried out by use of a Bio-imaging Analyzer (type: BAS-2500; manufactured by FUJIFILM Corporation).
(5) After the completion of the image analysis using the Bio-imaging Analyzer, […]
Thus, it was confirmed that amyloid was deposited on the slice (FIG. 6b).
The same procedures as in Example 12 were performed except using a solution of Compound 2 in a 10 mg/mL ascorbic acid as a sample solution (the radioactive concentration of the sample solution was 25 MBq/mL).
(1) Aβ1-42 (manufactured by Wako) was dissolved in phosphate buffer (pH 7.4) and shaken at 37° C. for 72 hours, to obtain 1 mg/mL of a suspension of aggregated Aβ (hereinafter referred to as amyloid suspension in the Examples).
(3) A sample solution (30 MBq/mL in radioactivity concentration, Example 24) in which Compound 4 was dissolved in a 10 mg/mL ascorbic acid-containing physiological saline solution and a sample solution (30 MBq/mL in radioactivity concentration, Example 25) in which Compound 6 was dissolved in a 10 mg/mL ascorbic acid-containing physiological saline solution were prepared. This solution was injected under thiopental anesthesia into the rat through the tail vein (dosage: 0.5 mL, dosed radioactivity: 11-15 MBq equivalent).
Thus, it was confirmed that amyloid was deposited on the slice (FIG. 12 and FIG. 13).

[2] = Partition coefficient based on the octanol extraction method; assay type: physicochemical; conditions: octanol / 10 mmol/L phosphate buffer (pH 7.4); Table 6, Examples 20-21
Method: Partition coefficients based on the octanol extraction method (hereinafter referred to as log Poctanol) were measured, which are generally known as an indicator of permeability of compounds through the blood-brain barrier (hereinafter referred to as BBB).
A diethyl ether solution of Compound 1 prepared in Example 3 (Example 8), a diethyl ether solution of Compound 2 prepared in Example 6 (Example 9), and a diethyl ether solution of [^123I]-IMPY prepared in Reference Example 1 (Comparative Example 4) were each diluted with 10 mg/mL ascorbic acid-containing physiological saline solution, and adjusted to a radioactive concentration of 20-30 MBq/mL. To 2 mL of octanol, 10 μL each of the prepared sample solutions was added, 2 mL of 10 mmol/L phosphate buffer (pH 7.4) was added, followed by stirring for 30 seconds. After the mixture was centrifuged with a low-speed centrifuge (2000 rpm×60 min.), the octanol layer and the water layer were sampled each in an amount of 1 mL, and subjected to measurement of radioactivity count with an autowell gamma system (Type: ARC-301B, manufactured by Aloka). Using the obtained radioactivity count, log Poctanol was calculated in accordance with the equation (2).
A diethyl ether solution (Example 20) of Compound 4 prepared in Example 16, a diethyl ether solution (Example 21) of Compound 6 prepared in Example 19, and a diethyl ether solution (Comparative Example 7) of [^123I]-IMPY were each diluted with a 10 mg/mL ascorbic acid-containing physiological saline solution to adjust to a radioactive concentration of 20-30 MBq/mL. To 2 mL of octanol, 10 μL each of the prepared sample solution was added, and 2 mL of 10 mmol/L phosphate buffer (pH 7.4) was further added, followed by stirring for 30 seconds. After the mixture was centrifuged with a low-speed centrifuge (2000 rpm×60 min.), the octanol layer and the water layer were sampled each in an amount of 1 mL, and subjected to measurement of radioactivity count with an autowell gamma system (Type: ARC-301B, manufactured by Aloka). Using the obtained radioactivity count, logPoctanol was calculated in accordance with the equation (4).

[3] = Transferability into brain and clearance; assay type: in vivo, male Wistar rats; conditions: intravenous injection, rats, Table 7
Method: Using Compound 1 (Example 10) and Compound 2 (Example 11), a time course change of radioactive accumulation in brain of male Wistar rats (7-week old) was measured.
A diethyl ether solution of Compound 1 (Example 10) prepared in Example 3, a diethyl ether solution of Compound 2 (Example 11) prepared in Example 6 and a diethyl ether solution of [^123I]-IMPY (Comparative Example 5) prepared in Reference Example 1 were each diluted with 10 mg/mL ascorbic acid-containing physiological saline solution to adjust to a radioactive concentration of 8-12 MBq/mL. 0.05 mL each of the prepared sample solutions was injected under thiopental anesthesia into the tail vein of the rats. The rats were sacrificed by bleeding from abdominal artery, and brains were removed and subjected to measurement of mass of brains and further subjected to measurement of radioactivity (hereinafter referred to as A in this Example) with a single channel analyzer (detector type: SP-20 manufactured by OHYO KOKEN KOGYO Co., Ltd.) 2, 5, 30 and 60 minutes after the injection. Further, the radioactivity level of the rest of the whole body was measured in the same manner as above (hereinafter referred to as B in this Example). Using these measurement results, radioactive distribution per unit weight of brain (% ID/g) at the respective time points were calculated in accordance with the following formula (3).
Three animals were used for the experiment at the respective time points.
Using Compound 4 and Compound 6, a time course change of radioactive accumulation in brain of male Wistar rats (7-week old) was measured.
Compound 4 (Example 22), Compound 6 (Example 23) and a solution of [^123I]-IMPY (Comparative Example 8) prepared above in Reference Example 1 were each diluted with a 10 mg/mL ascorbic acid-containing physiological saline solution to prepare solutions (20-31 MBq/mL in radioactive concentration). 0.05 mL each of the prepared sample solutions was injected under thiopental anesthesia into the tail vein of the respective Wistar rat (7-week old). The rats were sacrificed by bleeding from abdominal artery, and brains were removed and subjected to measurement of mass of brains and further subjected to measurement of radioactivity (hereinafter referred to as A in this Example) with a single channel analyzer (detector type: SP-20 manufactured by OHYO KOKEN KOGYO Co., Ltd.) 2, 5, 30 and 60 minutes after the injection. Further, the radioactivity level of the rest of the whole body was measured in the same manner as above (hereinafter referred to as B in this Example). Using these measurement results, radioactive distribution per unit weight of brain (% ID/g) at the respective time points were calculated in accordance with the following formula (5).

[4] = test system: Salmonella typhimurium TA98; assay: Reverse mutation test (Ames test), TA98; assay type: cell-based
Method: (§1) In order to examine gene mutagenicity of Compounds 3, 5 and 8, reverse mutation test using Salmonella typhimurium TA98 and TA100 (hereinafter referred to as Ames test) was conducted.
(§2) The test was conducted without addition of S9mix and with addition of S9mix. Dimethylsulfoxide (hereinafter referred to as DMSO) was used as a negative control. A positive control was 2-(2-furyl)-3-(5-nitro-2-furyl)acrylamide (hereinafter referred to as AF-2) in case S9mix was not added, and 2-aminoanthracene (hereinafter referred to as 2-AA) in case S9mix was added.
(§3) As a sample solution to be added to a test plate, each compound was dissolved in DMSO to prepare a solution at a concentration of 50 mg/mL, and further, each solution was diluted with DMSO to prepare a solution with 7 dosage (geometric ratio 3). As a sample solution for preparing a sample of positive control, when TA98 was used as a test strain without addition of S9mix, a solution of AF-2 (compound concentration: 1 μg/mL) in DMSO was prepared; when TA100 was used as a test strain without addition of S9mix, a solution of AF-2 (compound concentration: 0.1 μg/mL) in DMSO was prepared; when TA98 was used as a test strain with addition of S9mix, a solution of 2-AA (compound concentration: 5 μg/mL) in DMSO was prepared; and when TA100 was used as a test strain with addition of S9mix, a solution of 2-AA (compound concentration: 10 μg/mL) in DMSO was prepared.
(§4) After each sample solution to be examined and a test strain (TA98 or TA100) were mixed together so as to make the addition amount of each sample to be 0.1 mL/plate, the mixture was multilayered using soft agar on a medium of a test plate, and then incubated at 37° C. for 48 hours. Separately, after each sample solution to be examined, S9mix and a test strain were mixed together so as to make the addition amount of each sample to be 0.1 mL/plate, the mixture was multilayered using soft agar on a medium of a test plate, and then incubated at 37° C. for 48 hours. On the other hand, only DMSO was used as a sample solution to perform the same procedure as above for the negative control. […]

[5] = test system: Salmonella typhimurium TA100; assay: Reverse mutation test (Ames test), TA100; assay type: cell-based
Method: as §1, §2, §3, §4

[6] = target: T2, aggregated Aβ (Aβ1-42) amyloid (Homo sapiens, UniProt P05067); assay: In vitro binding test: inhibition of [^125I]3′-I-BTA-0 binding to amyloid; conditions: [^125I]3′-I-BTA-0 400 pmol/L, amyloid 1 μmol/L, 22° C., 3 hours
T2 construct: Aβ1-42 (manufactured by Wako) was dissolved in phosphate buffer (pH 7.4); purchased Wako
T2 sequence (P05067 672-713): as above
Method: Affinity of the present compounds with amyloid was examined by the following in vitro binding tests.
The measured radioactivity level was defined as the background radioactivity level, and used in the calculation of the inhibition ratio (hereinafter referred to as BG).
(9) Using the radioactivity levels measured above in (7) and (8), the inhibition ratio was determined by the following formula (1).
A graph in which values converted by probit transformation from the obtained inhibition ratios were plotted relative to logarithms of concentrations of compounds for evaluation was prepared to obtain an approximate straight line by the least square method.

[7] = International Publication No. WO03/106439; cited from earlier work
[8] = [^125I]-labeled compounds, normal mice; cited from earlier work
[9] = TA98, without addition of S9mix
[10] = TA100, without addition of S9mix

| Molecule | Mutagenicity ([4]; TA98, with addition of S9mix) | Mutagenicity [4, 9] | Mutagenicity ([5]; TA100, with addition of S9mix) | Mutagenicity [5, 10] | Clearance from normal tissues [8] | further results |
| --- | --- | --- | --- | --- | --- | --- |
| 2-[3′-(2″-hydroxyethoxy)phenyl]-6-[^123I]iodoimidazo[1,2-a]pyridine [Compound 4] |  |  |  |  |  | Accumulation of radioactivity in amygdaloid nucleus on the amyloid-injected side [1]: marked accumulation of radioactivity; logPoctanol value [2]: 2.5; Radioactive distribution per unit weight of brain ([3]; After 2 min.): 0.56 % ID/g; Radioactive distribution per unit weight of brain ([3]; After 5 min.): 0.28 % ID/g; Radioactive distribution per unit weight of brain ([3]; After 30 min.): 0.04 % ID/g; Radioactive distribution per unit weight of brain ([3]; After 60 min.): 0.01 % ID/g |
| OCCOc1cccc(-c2cn3cc(I)ccc3n2)c1 [Compound 5, 2-[3′-(2″-hydroxyethoxy)phenyl]-6-iodoimidazo[1,2-a]pyridine] | Negative | Negative | Negative | Negative |  |  |
| CCOc1ccc(-c2cn3cc(I)ccc3n2)cc1 [Compound 8, 2-(4′-ethoxyphenyl)-6-iodoimidazo[1,2-a]pyridine] | Negative | Negative | Negative | Negative |  |  |
| CCC[CH2][Sn]([CH2]CCC)([CH2]CCC)[c]1ccc2nc(-c3ccc(OCCO)cc3)cn2c1 [Compound 9, 6-tributylstannyl-2-[4′-(2″-hydroxyethoxy)phenyl]imidazo[1,2-a]pyridine] | Negative | Negative | Negative | Negative |  |  |
| Nc1c(/N=N/c2ccc(-c3ccc(/N=N/c4cc(S(=O)(=O)O)c5ccccc5c4N)cc3)cc2)cc(S(=O)(=O)O)c2ccccc12 [Congo Red, reference compound] |  |  |  |  |  | IC50 [6]: > 1000 nM |
| CC(=C(C#N)C#N)c1ccc2cc(N(C)CCF)ccc2c1 [FDDNP, 2-(1-{6-[(2-fluoroethyl)(methyl)amino]-2-naphthyl}ethylidene)malononitrile] |  |  |  |  |  | Reverse mutation test result [7]: positive |
| CN(C)c1ccc(-c2nc3ccc(I)cc3o2)cc1 [IBOX, 6-iodo-2-[4′-(N,N-dimethylamino)phenyl]benzoxazole] |  |  |  |  | insufficient in clearance from normal tissues |  |
| CN(C)c1ccc(-c2cn3cc(I)ccc3n2)cc1 [IMPY, 6-iodo-2-[4′-(N,N-dimethylamino)phenyl]imidazo[1,2-a]pyridine] |  |  |  |  |  | Reverse mutation test result [7]: positive |
| CN(C)c1ccc(-c2nc3ccc(I)cc3s2)cc1 [TZDM, 6-iodo-2-[4′-(N,N-dimethylamino)phenyl]benzothiazole] |  |  |  |  | insufficient in clearance from normal tissues |  |
| CN(C)c1ccc(/C=C/c2ccc(I)cc2)cc1 [m-I-SB, (E)-4-dimethylamino-4′-iodostilbene] |  |  |  |  | insufficient in clearance from normal tissues |  |
